Results reported in patent US20110195924A1, “Methods of Inhibiting the Interaction Between S100P and the Receptor for Advanced Glycation End-Products” (priority 2008, published 2011).

Key:
Panc-1 tumors = test: Panc-1 orthotopic tumor growth and metastasis in scid mice; assay type: in vivo
Procedure: (§1) FIGS. 6A-6F show the effect of cromolyn on Panc-1 tumor growth and metastasis in vivo. Panc-1 cells stably expressing the firefly luciferase gene were injected orthotopically into 4-week-old male CB 17 scid mice. […] Mice were divided into four groups of five mice each with an equivalent mean tumor size between groups. […] One group was treated with water (control), one group received gemcitabine bi-weekly (125 mg per kg body weight bi-weekly by intraperitoneal injection), one group was administered cromolyn daily (5 mg per kg body weight daily by intraperitoneal injection), and the final group was given the combination of cromolyn and gemcitabine. All groups were treated for six weeks. Bioluminescent imaging was done weekly to assess tumor growth. […] Means and 95% confidence intervals from two independent experiments are shown (n=20). Two-tailed two-sample (unpaired) Student's t-tests were used to determine P values. The anti-tumorigenic capability of the drug cromolyn was assessed in 4-week-old male CB 17 scid mice (n=20) carrying orthopic tumors of BxPC-3, MPanc96, and Panc-1 cells stably expressing a Lenti-luc reporter. All mouse experiments were reviewed and approved by the Institutional Animal Care and Use Committee of UT MD Anderson Cancer Center. All mice were maintained in a sterile environment. Cages, bedding, food, and water were all autoclaved. All mice were maintained on a daily 12-hour light/12-hour dark cycle, according to the institutional animal welfare guidelines. BxPC-3, MPanc96, and Pane-1 cells carrying the Lenti-luc reporter gene were grown to 80% confluence, harvested by incubation with trypsin-EDTA, washed twice in PBS, and resuspended to a final concentration of 4.0×10^6 cells/mL. Each mouse (n=20 mice per cell line) was injected (into the pancreas) with cell suspensions (50 μL). Bioluminescent imaging to determine tumor volume was performed 1 week after injection because the tumors became established within this amount of time. This initial tumor volume was used to divide the mice into four groups of five mice each, such that the mean tumor size was equal between groups (FIGS. 4A, 5A, and 6A). To allow enough time to observe differences among treatment groups, the mice were followed for the next 5 weeks. One group of mice was then treated biweekly with a sub-maximal concentration of gemcitabine (125 mg per kg body weight by i.p. injection). A second group was treated with a daily injection of cromolyn (5 mg per kg body weight by i.p. injection). A third group was treated with both bi-weekly gemcitabine and daily cromolyn. The control group was treated daily with vehicle. Treatments were continued for 5 weeks, and the effects on the tumor burden and metastasis were analyzed by weekly bioluminescence imaging (FIGS. 4B, 5B, and 6B). At the end of the experiment the mice were anesthetized with 1.5% isofluorane/air mixture and killed by cervical dislocation. Bioluminescence imaging was conducted using a cryogenically cooled IVIS 100 imaging system coupled to a data acquisition computer running Living Image software (Xenogen Corp., Alameda, Calif.). Before imaging, mice were placed in an acrylic chamber, anesthetized with 1.5% isofluorane/air mixture, and injected i.p. with 15 mg/mL of luciferin potassium salt in PBS at a dose of 150 mg per kg body weight. A digital grey scale image of each mouse was acquired, followed by acquisition and overlay of a pseudocolor image representing the spatial distribution of detected photons emerging from active luciferase within the mouse. Tumor volume was quantified as the sum of all detected photons within the region of the tumor per second. At the end of experiment, the mice were killed, and tumors were surgically removed and weighed. After the primary tumors were removed, cancer cell dissemination and metastasis was visualized using IVIS imaging, and metastatic colonies were counted. […]

MPanc-96 tumors = test: MPanc-96 orthotopic tumor growth and metastasis in scid mice; assay type: in vivo; settings: MPanc-96 model; for lung metastasis, mean: control 5.9×10^7; for liver metastasis, mean: control 9.4×10^8; for tumor burden, mean: gemcitabine 125 mg/kg bi-weekly i.p., cromolyn 5 mg/kg daily i.p., end of six weeks, control 1.1×10^10
Procedure: as §1, with “FIGS. 5A-5F” for “FIGS. 6A-6F”, “on MPanc-96” for “on Panc-1”, “vivo. MPanc-96” for “vivo. Panc-1”

## Nc1ccn([C@@H]2O[C@H](CO)[C@@H](O)C2(F)F)c(=O)n1 [gemcitabine]
Panc-1 tumors; Panc-1 model
  body weight, difference versus control: 4.8 g
  liver or lung metastasis: neither cromolyn nor gemcitabine nor the combination reduced
Panc-1 tumors; Panc-1 model, control 32.0 g
  body weight at the end of the experiment, mean: 27.2 g
MPanc-96 tumors
  liver metastasis, difference versus control: 8.1×10^8 photons/sec
  lung metastasis, difference versus control: 5.4×10^7 photons/sec
  tumor burden, difference versus control: 6.9×10^9 photons/sec
  lung metastasis, mean: 5.0×10^6 photons/sec
  liver metastasis, mean: 1.2×10^8 photons/sec
  tumor burden, mean: 4.1×10^9 photons/sec

## O=C(O)c1cc(=O)c2c(OCC(O)COc3cccc4oc(C(=O)O)cc(=O)c34)cccc2o1 [cromolyn, disodium 1,3-bis[(2′-carboxylatochromon-5′-yl)oxy]-2-hydroxypropane]
Panc-1 tumors; Panc-1 model
  liver or lung metastasis: neither cromolyn nor gemcitabine nor the combination reduced
Panc-1 tumors; Panc-1 model (no S100P), cromolyn 5 mg/kg daily i.p.
  tumor development: did not reduce
Panc-1 tumors; Panc-1 model, up to 6 weeks
  effect on body weight (in words): no effect
MPanc-96 tumors
  liver metastasis, difference versus control: 7.2×10^8 photons/sec
  lung metastasis, difference versus control: 5.6×10^7 photons/sec
  tumor burden, difference versus control: 6.2×10^9 photons/sec
  lung metastasis, mean: 3.2×10^6 photons/sec
  liver metastasis, mean: 2.2×10^8 photons/sec
  tumor burden, mean: 4.8×10^9 photons/sec
MPanc-96 tumors; up to 6 weeks
  effect on body weight (in words): no effect
